Source: patent publication US20200206233A1 (INTEGRAL BIOSCIENCES PRIVATE LIMITED, priority 2018, published 2020)

Biological target: T1, IDH1 mutant (R132H) (Homo sapiens, UniProt O75874, R132H)
T1 construct: purchased BPS Bioscience 71099-2
Assay: Mutant IDH1-R132H Fluorescence Assay (Resazurin based)
Assay type: biochemical
Conditions: 10 nM IDH1 R132H, 4 mM α-ketoglutarate, NADPH, 1.5 h at room temperature
Procedure: IC50 values of compounds against IDH1 mutant (R132H) was determined by Resazurin based Fluorescence assay. Assays were performed in Buffer (25 mM Tris HCl, 150 mM NaCl, 10 mM MgCl2, 0.03% BSA, 2 mM 1-mercaptoethanol) where total reaction volume was 12.5 μL in low-volume 384-well plates (Cat #4511, Corning). Serially diluted compounds (3-fold) were incubated with cocktail of α-ketoglutarate (4 mM; Cat #75892-25G, Sigma), NADPH ([…]; Cat # N1630-100MG, Sigma) and buffer for 5 min, following IDH1 R132H mutant (10 nM; Cat #71099-2, BPS Bioscience) was added and incubated in dark at room temperature for 1.5 h. After 1.5 h, 6.25 μL detection solution containing Resazurin ([…]; (Cat #62758-13-8, Sigma) and Diaphorase (40 ug/ml; Cat # D2197-300UN, Sigma) in buffer was added and incubated for 15 min. Readings were taken in a Synergy Neo Plate reader (BioTek, Winooski) at single excitation of 540 nm and emission at 590 nm respectively.
The % (percent) activity of test samples was calculated as (Sample−Min)×100/(Max−Min). [Max: DMSO control, complete reaction with enzyme with DMSO and Min: No enzyme with DMSO]. Percent inhibition (100−% activity) was fitted to the “four-parameter logistic model” in XLfit for determination of IC50 values.

T1 sequence (O75874 whole entry R132H): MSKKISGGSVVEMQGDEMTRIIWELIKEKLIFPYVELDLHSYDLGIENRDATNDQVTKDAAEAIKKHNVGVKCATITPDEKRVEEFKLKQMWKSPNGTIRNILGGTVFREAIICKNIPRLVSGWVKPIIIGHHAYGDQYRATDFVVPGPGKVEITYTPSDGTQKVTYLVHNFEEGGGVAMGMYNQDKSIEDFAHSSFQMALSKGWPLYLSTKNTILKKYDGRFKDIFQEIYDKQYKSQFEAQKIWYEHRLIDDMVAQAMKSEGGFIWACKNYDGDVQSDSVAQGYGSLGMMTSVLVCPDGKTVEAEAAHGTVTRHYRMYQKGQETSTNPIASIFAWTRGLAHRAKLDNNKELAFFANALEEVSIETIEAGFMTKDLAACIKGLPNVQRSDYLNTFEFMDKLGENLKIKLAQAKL

| Structure (SMILES) | IC50 [µM] |
| --- | --- |
| CC[C@H]1COC(=O)N1c1nc(N[C@@H](C)c2ccc(Oc3ccccc3)cc2)nc(N(C)C)n1 [Compound 1.63, (S)-3-(4-(dimethylamino)-6-((S)-1-(4-phenoxyphenyl)ethylamino)-1,3,5-triazin-2-yl)-4-ethyloxazolidin-2-one] | 2.4 |
| Cc1nc(N[C@@H](C)c2ccc(Oc3ccccc3)cc2)nc(N2C(=O)OC[C@@H]2C)n1 [Compound 1.65, (S)-4-methyl-3-(4-methyl-6-((S)-1-(4-phenoxyphenyl)ethylamino)-1,3,5-triazin-2-yl)oxazolidin-2-one] | 2.65 |
| CC[C@H]1COC(=O)N1c1nc(C)nc(N[C@H](C)c2cc3cc(Br)ccc3[nH]c2=O)n1 [Compound 1.67, (S)-3-(4-((R)-1-(6-bromo-2-oxo-1,2-dihydroquinolin-3-yl)ethylamino)-6-methyl-1,3,5-triazin-2-yl)-4-ethyloxazolidin-2-one] | 12.3 |
| CC[C@H]1COC(=O)N1c1nc(C)nc(N[C@@H](C)c2ccc(-c3ccc(F)c(C)c3)cn2)n1 [Compound 1.68, (S)-4-ethyl-3-(4-((S)-1-(5-(4-fluoro-3-methylphenyl)pyridin-2-yl)ethylamino)-6-methyl-1,3,5-triazin-2-yl)oxazolidin-2-one] | 1.58 |
| CC[C@H]1COC(=O)N1c1nc(C)nc(N[C@@H](C)c2cnc3ccc(Cl)nn23)n1 [Compound 1.69, (S)-3-(4-((S)-1-(6-chloroimidazo[1,2-b]pyridazin-3-yl)ethylamino)-6-methyl-1,3,5-triazin-2-yl)-4-ethyloxazolidin-2-one] | > 30 |
| CC[C@H]1COC(=O)N1c1nc(C)nc(N[C@H](C)c2cnc3ccc(Cl)nn23)n1 [Compound 1.70, (S)-3-(4-((R)-1-(6-chloroimidazo[1,2-b]pyridazin-3-yl)ethylamino)-6-methyl-1,3,5-triazin-2-yl)-4-ethyloxazolidin-2-one] | > 30 |
| CC[C@H]1COC(=O)N1c1nc(N[C@@H](C)c2ccc(Oc3ccccc3)cc2)nc(C2CC2)n1 [Compound 1.71, (S)-3-(4-cyclopropyl-6-((S)-1-(4-phenoxyphenyl)ethylamino)-1,3,5-triazin-2-yl)-4-ethyloxazolidin-2-one] | 2.44 |
| CC[C@H]1COC(=O)N1c1nc(C)nc(N[C@H](C)c2ccc(OCc3ccccc3)cc2)n1 [Compound 1.72, (S)-3-(4-((R)-1-(4-(benzyloxy)phenyl)ethylamino)-6-methyl-1,3,5-triazin-2-yl)-4-ethyloxazolidin-2-one] | > 30 |
| CC[C@H]1COC(=O)N1c1nc(C)nc(N[C@@H](C)c2ccc(OCc3ccccc3)cc2)n1 [Compound 1.73, (S)-3-(4-((S)-1-(4-(benzyloxy)phenyl)ethylamino)-6-methyl-1,3,5-triazin-2-yl)-4-ethyloxazolidin-2-one] | 15.4 |
| CC[C@H]1COC(=O)N1c1nc(C)nc(N[C@@H](C)c2ccc(Oc3cccnc3)cc2)n1 [Compound 1.74, (S)-4-ethyl-3-(4-methyl-6-((S)-1-(4-(pyridin-3-yloxy)phenyl)ethylamino)-1,3,5-triazin-2-yl)oxazolidin-2-one] | > 30 |
| CC[C@H]1COC(=O)N1c1nc(C)nc(N[C@H](C)c2ccc(Oc3ccccc3)cn2)n1 [Compound 1.76, (S)-4-ethyl-3-(4-methyl-6-((R)-1-(5-phenoxypyridin-2-yl)ethylamino)-1,3,5-triazin-2-yl)oxazolidin-2-one] | > 23.3 |
| CC[C@H]1COC(=O)N1c1nc(C)nc(N[C@@H](C)c2ccc(Oc3ccccc3)nc2)n1 [Compound 1.77, (S)-4-ethyl-3-(4-methyl-6-((S)-1-(6-phenoxypyridin-3-yl)ethylamino)-1,3,5-triazin-2-yl)oxazolidin-2-one] | 5.95 |
| CC[C@H]1COC(=O)N1c1nc(C)nc(N[C@H](C)c2ccc(Oc3ccc(F)cc3Br)cc2)n1 [Compound 1.79, (S)-3-(4-((R)-1-(4-(2-bromo-4-fluorophenoxy)phenyl)ethylamino)-6-methyl-1,3,5-triazin-2-yl)-4-ethyloxazolidin-2-one] | 2.72 |
| CC[C@H]1COC(=O)N1c1nc(C)nc(N[C@H](C)c2ccc(Oc3cccnc3C(F)(F)F)cc2)n1 [Compound 1.80, (S)-4-ethyl-3-(4-methyl-6-((R)-1-(4-(2-(trifluoromethyl)pyridin-3-yloxy)phenyl)ethylamino)-1,3,5-triazin-2-yl)oxazolidin-2-one] | 10.2 |
| CC[C@H]1COC(=O)N1c1nc(C)nc(N[C@@H](C)c2ccc(Oc3ccc(Cl)cc3)nc2OC)n1 [Compound 1.87, (S)-3-(4-((S)-1-(6-(4-chlorophenoxy)-2-methoxypyridin-3-yl)ethylamino)-6-methyl-1,3,5-triazin-2-yl)-4-ethyloxazolidin-2-one] | 8.82 |
| CC[C@H]1COC(=O)N1c1nc(C)nc(N[C@H](C)c2ccc(Nc3ccccc3)cc2)n1 [Compound 1.88, (S)-4-ethyl-3-(4-methyl-6-((R)-1-(4-(phenylamino)phenyl)ethylamino)-1,3,5-triazin-2-yl)oxazolidin-2-one] | > 30 |
| CC[C@H]1COC(=O)N1c1nc(C)nc(N[C@@H](C)c2ccc(Nc3ccccc3)cc2)n1 [Compound 1.89, (S)-4-ethyl-3-(4-methyl-6-((S)-1-(4-(phenylamino)phenyl)ethylamino)-1,3,5-triazin-2-yl)oxazolidin-2-one] | 1.42 |
| CC[C@H]1COC(=O)N1c1nc(C)nc(N[C@@H](C)c2ccc3c(ccn3-c3ccccc3)c2)n1 [Compound 1.90, (S)-4-ethyl-3-(4-methyl-6-((S)-1-(1-phenyl-1H-indol-5-yl)ethylamino)-1,3,5-triazin-2-yl)oxazolidin-2-one] | 1.54 |
| CC[C@H]1COC(=O)N1c1nc(C)nc(N[C@H](C)c2ccc(Sc3ccc(F)cc3)cc2)n1 [Compound 1.91, (S)-4-ethyl-3-(4-((R)-1-(4-(4-fluorophenylthio)phenyl)ethylamino)-6-methyl-1,3,5-triazin-2-yl)oxazolidin-2-one] | > 30 |
| CC[C@H]1COC(=O)N1c1nc(C)nc(N[C@H](C)c2ccc(Oc3ccc4ccccc4c3)cc2)n1 [Compound 1.93, (S)-4-ethyl-3-(4-methyl-6-((R)-1-(4-(naphthalen-2-yloxy)phenyl)ethylamino)-1,3,5-triazin-2-yl)oxazolidin-2-one] | > 30 |
| CC[C@H]1COC(=O)N1c1nc(C)nc(N[C@@H](C)c2ccc(Cc3ccccc3)cc2)n1 [Compound 1.95, (S)-3-(4-((S)-1-(4-benzylphenyl)ethylamino)-6-methyl-1,3,5-triazin-2-yl)-4-ethyloxazolidin-2-one] | 2.64 |
| CC[C@H]1COC(=O)N1c1nc(C)nc(N[C@@H](C)c2ccc(Oc3ccc(Cl)cc3)c(C)n2)n1 [Compound 1.96, (S)-3-(4-((S)-1-(5-(4-chlorophenoxy)-6-methylpyridin-2-yl)ethylamino)-6-methyl-1,3,5-triazin-2-yl)-4-ethyloxazolidin-2-one] | 3.83 |
| CC[C@H]1COC(=O)N1c1nc(C)nc(N[C@H](C)c2ccc(Oc3ccc(Cl)cc3)c(C)n2)n1 [Compound 1.97, (S)-3-(4-((R)-1-(5-(4-chlorophenoxy)-6-methylpyridin-2-yl)ethylamino)-6-methyl-1,3,5-triazin-2-yl)-4-ethyloxazolidin-2-one] | > 30 |
